{
  "source": "patent US5821084A",
  "about": "“Osteoblast-testicular protein tyrosine phosphatase” (The Regents of the University of Michigan, priority 1994, dated 1998)",
  "key": {"[1]": {"tested_on": "other two novel PTPase clones", "assay": "Northern blot of other novel PTPase clones in PTH-treated UMR106 cells", "format": "cell-based, rat", "conditions": "PTH treatment", "description": "RNA was analyzed by Northern blot hybridization to determine the tissue specificity of the OST-PTP clone. Poly A^+ RNA was extracted from an array of adult rat tissues: uterus, ovary, testis, kidney, heart, liver, lung, spleen, brain, skeletal muscle, smooth muscle, pancreas and retina. Poly A^+ RNA derived from UMR106 was used as a standard to control for expression in bone. The RNA preparations were quantitated by absorbance at 260 nm and, depending on the message abundance, either total cellular RNA or poly A+ RNA was electrophoretically separated in a 6.6% formaldehyde-1%agarose gel. RNA fractionated in such gels was transferred to Magnagraph nylon membrane (MSI) in 20× SSC by capillary action method. Two different types of probe; riboprobe (RNA) or random primed cDNA probe, were used depending on the experiment. The riboprobe used for hybridization corresponded to the extracellular domain of OST-PTP, and was labeled by in vitro transcription using ^32 P-a (3000 Ci/mM) as described by manufacturers (Promega). […] All quantifications were normalized against the amount of cyclophilin message which was considered to be standard for any given conditions. […]"}, "[2]": {"tested_on": "OST-PTP mRNA", "format": "cell-based, rat", "excerpt": "Poly A^+ RNA was extracted from an array of adult rat tissues: uterus, ovary, testis, kidney, heart, liver, lung, spleen, brain, skeletal muscle, smooth muscle, pancreas and retina. Poly A^+ RNA derived from UMR106 was used as a standard to control for expression in bone. […] RNA fractionated in such gels was transferred to Magnagraph nylon membrane (MSI) in 20× SSC by capillary action method. Two different types of probe; riboprobe (RNA) or random primed cDNA probe, were used depending on the experiment. […] All DNA probes were labeled with ^32 P-a (3000 Ci/mM) by the Random Primers DNA labeling kit using manufacturer's recommended conditions (GibcoBRL Life Technologies). […] For hybridizations, 10^6 cpms/ml probe was added. Following hybridization, the blots were washed twice at room temperature in 1× SSC+0.1% SDS (30 minutes per wash), and then washed twice in 0.1× SSC+0.1% SDS (30 minutes per wash) once at room temperature and once at 68° C. The prehybridization/hybridization conditions for the DNA probes were the same as described above except the temperature was lowered to 43° C. […] The washes were done as described above. The results were visualized either by autoradiography or by scanning with a phosphorimager (Molecular Dynamics). All quantifications were normalized against the amount of cyclophilin message which was considered to be standard for any given conditions.\nParathyroid hormone is an important bone hormone. […] The UMR106 cells were cultured as described above until confluence. The cells were then washed twice in phosphate buffered saline followed by incubation for 5 hours at 37° C. in serum free DMEM. After serum deprivation, 100 nM parathyroid hormone (PTH) was added to the cultures and incubation continued for 4, 8, 12, and 16 hours at 37° C. RNA was then isolated from the cells as described above."}, "[3]": {"tested_on": "UMR106 cells", "conditions": "cited from earlier work"}},
  "data": [
    {"substance": "parathyroid hormone [PTH]", "values": [
      {"measurement": "effect of PTH on the other two novel PTPase clones", "setting": "[1]", "value": "Neither of the other two novel PTPase clones were altered"},
      {"measurement": "change of OST-PTP message at later time points", "setting": "[2]; UMR106 cells, 100 nM PTH, later than 4 hours (8, 12, 16 hours)", "value": "further increases"},
      {"measurement": "PTH concentration effective in increasing OST-PTP transcripts", "setting": "[2]; UMR106 cells, 18 hours", "value": 1, "unit": "nM"},
      {"measurement": "effect on OST-PTP transcripts of exposure for less than 4 hours", "setting": "[2]; UMR106 cells, regardless of concentration (10 pM-100 nM)", "value": "no significant effect"},
      {"measurement": "increase of PTP-OST (OST-PTP) message", "setting": "[2]; umr106 cells, 4 h, 0.1 µM", "value": "≤ 5", "unit": "fold"},
      {"measurement": "effect on cell proliferation and DNA synthesis", "setting": "[3]", "value": "inhibit cell proliferation, and DNA synthesis"}
    ]}
  ]
}
